Test results published in publication PMC9543606, “Structural and ITC Characterization of Peptide‐Protein Binding: Thermodynamic Consequences of Cyclization Constraints, a Case Study on Vascular Endothelial Growth Factor Ligands” (Chemistry (Weinheim an Der Bergstrasse, Germany), 2022).
Several values for one entry are separate records, joined by “and”; a condition that tells them apart may be missing. Identical values can stand only once. Like-named read-outs stand apart in the source and are kept apart here. Where a SMILES comes first, the peptide text is derived from it. Bridges are numbered along the chain shown (N, C = ends). [ ]: non-standard residue; d: D form. Nle = CCCC[C@H](N)C(=O)O

Target: VEGF (Homo sapiens, UniProt P15692)
Sequence (P15692 219-313): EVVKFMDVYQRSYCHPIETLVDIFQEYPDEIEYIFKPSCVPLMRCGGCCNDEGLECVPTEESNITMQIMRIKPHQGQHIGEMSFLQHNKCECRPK
Conditions: for Δ(ΔG 20 °C) / Δ(ΔH 20 °C) / Δ(‐TΔS) 20 °C / Δ(ΔG 37 °C) / Δ(ΔH 37 °C) / Δ(‐TΔS) 37 °C / Δ(ΔCp): ± at P=95 %; for ΔG / −TΔS / ΔH / ΔCp: ITC, 95 % confidence interval in brackets; for ΔG / −TΔS / ΔH: 50 mM HEPES/NaOH, 150 mM NaCl, pH 7.5, first binding site; for ΔG: calculated from Kd (Eq. 1); for −TΔS: calculated from ΔG and ΔH (Eq. 2); for ΔH: normalised on reverse titrations; for ΔCp: heat capacity change on binding from ΔH at 20 °C and 37 °C (Eq. 3)
[1] = 20 °C, monocyclic peptide minus peptide 4 (pairs 1–4, 3–4)
[2] = 37 °C, monocyclic peptide minus peptide 4 (pairs 1–4, 3–4)
[3] = 20 °C, bicyclic peptide minus its monocyclic counterpart
[4] = 37 °C, bicyclic peptide minus its monocyclic counterpart
[5] = bicyclic peptide minus its monocyclic counterpart
[6] = 20 °C, peptide 2 minus peptide 1 (pair 2–1)
[7] = 20 °C, peptide 2 minus peptide 3 (pair 2–3)
[8] = 37 °C, peptide 2 minus peptide 1 (pair 2–1)
[9] = 37 °C, peptide 2 minus peptide 3 (pair 2–3)

Row | Compound | ΔG (20 °C) | −TΔS (20 °C) | ΔG (37 °C) | −TΔS (37 °C) | ΔH (37 °C) | ΔCp | Δ(ΔH 20 °C) [3] [kcal⋅mol^−1] | Δ(‐TΔS) 20 °C [3] [kcal⋅mol^−1] | Δ(ΔH 37 °C) [4] [kcal⋅mol^−1] | Δ(‐TΔS) 37 °C [4] [kcal⋅mol^−1] | ΔH (20 °C) | Δ(ΔCp) [5] [kcal⋅mol^−1.K^−1] | also measured
1 | CCCC[C@@H]1NC(=O)[C@H](C(C)C)NC(=O)[C@H](Cc2c[nH]cn2)NC(=O)[C@H]([C@@H](C)CC)NC(=O)[C@H](CC(=O)O)NC(=O)[C@@H](N)CSSC[C@@H](C(=O)N[C@@H](Cc2ccccc2)C(=O)N[C@@H](CCC(=O)O)C(=O)N[C@@H](CC(=O)O)C(=O)N[C@@H](CC(C)C)C(N)=O)NC(=O)[C@H](CCCCN)NC(=O)[C@H](Cc2c[nH]c3ccccc23)NC(=O)[C@H](CCC(=O)O)NC(=O)[C@H](Cc2c[nH]c3ccccc23)NC1=O [compound 1] (H-CDIHV[Nle]WEWKCFEDL-NH2; disulfide 1-11) | −9.05 [−9.15; −8.97] kcal⋅mol^−1 | 8.7 [8.2; 9.3] kcal⋅mol^−1 | −8.51 [−8.56; −8.46] kcal⋅mol^−1 | 14.2 [13.8; 14.7] kcal⋅mol^−1 | −22.8 [−23.1; −22.4] kcal⋅mol^−1 | −0.29 [−0.32; −0.26] kcal⋅mol^−1.K^−1 | – | – | – | – | – | – | Δ(ΔG 20 °C) [1]: 0.2 ± 0.1 kcal⋅mol^−1 and 0.16±0.10 kcal⋅mol^−1; Δ(ΔH 20 °C) [1]: -0.4 ± 0.6 kcal⋅mol^−1; Δ(‐TΔS) 20 °C [1]: 0.6 ± 0.7 kcal⋅mol^−1; Δ(ΔG 37 °C) [2]: 0.2 ± 0.1 kcal⋅mol^−1 and 0.20±0.09 kcal⋅mol^−1; Δ(ΔH 37 °C) [2]: 0.2 ± 0.8 kcal⋅mol^−1; Δ(‐TΔS) 37 °C [2]: 0.0 ± 1.0 kcal⋅mol^−1; Δ(ΔCp) (monocyclic peptide minus peptide 4 (pairs 1–4, 3–4)): 0.04±0.06 kcal⋅mol^−1.K^−1
2 | CCCC[C@@H]1NC(=O)[C@H](C(C)C)NC(=O)[C@H](Cc2c[nH]cn2)NC(=O)[C@H]([C@@H](C)CC)NC(=O)[C@H](CC(=O)O)NC(=O)[C@@H](N)CSSC[C@@H]2NC(=O)[C@H](CCCCNC(=O)CC[C@@H](C(=O)N[C@@H](CC(C)C)C(N)=O)NC(=O)[C@H](CCC(=O)O)NC(=O)[C@H](Cc3ccccc3)NC2=O)NC(=O)[C@H](Cc2c[nH]c3ccccc23)NC(=O)[C@H](CCC(=O)O)NC(=O)[C@H](Cc2c[nH]c3ccccc23)NC1=O [4 c] (H-CDIHV[Nle]WEWKCFEEL-NH2; disulfide 1-11; lactam 10-14) | −9.16 [−9.27; −9.05] kcal⋅mol^−1 | 6.8 [6.1; 7.6] kcal⋅mol^−1 | −8.68 [−8.79; −8.56] kcal⋅mol^−1 | 13.5 [12.5; 14.7] kcal⋅mol^−1 | −22.2 [−23.2; −21.3] kcal⋅mol^−1 | −0.37 [−0.43; −0.31] kcal⋅mol^−1.K^−1 | 1.4±0.7 | −1.3±0.9 | 0.8±1.2 | −0.8±1.3 | −16.0 [−16.6; −15.4] kcal⋅mol^−1 | −0.04±0.08 | Δ(ΔG 20 °C) (20 °C, bicyclic peptide minus its monocyclic counterpart (1 c–1, 2 c–2, 3 c–3, 4 c–4)): 0.06±0.12 kcal⋅mol^−1; Δ(ΔG 37 °C) [4]: 0.04±0.14 kcal⋅mol^−1
3 | CCCC[C@@H]1NC(=O)[C@H](C(C)C)NC(=O)[C@H](Cc2c[nH]cn2)NC(=O)[C@H]([C@@H](C)CC)NC(=O)[C@H](CC(=O)O)NC(=O)[C@@H](N)CSSC[C@@H](C(=O)N[C@@H](Cc2ccccc2)C(=O)N[C@@H](CCC(=O)O)C(=O)N[C@@H](CCCCN)C(=O)N[C@@H](CC(C)C)C(N)=O)NC(=O)[C@H](CC(=O)O)NC(=O)[C@H](Cc2c[nH]c3ccccc23)NC(=O)[C@H](CCC(=O)O)NC(=O)[C@H](Cc2c[nH]c3ccccc23)NC1=O [compound 2] | −9.13 [−9.21; −9.05] kcal⋅mol^−1 | 6.7 [6.3; 7.1] kcal⋅mol^−1 | −8.76 [−8.82; −8.70] kcal⋅mol^−1 | 13.3 [12.7; 13.9] kcal⋅mol^−1 | −22.0 [−22.6; −21.5] kcal⋅mol^−1 | −0.36 [−0.40; −0.32] kcal⋅mol^−1.K^−1 | – | – | – | – | – | – | Δ(ΔG 20 °C) [6]: −0.08±0.12 kcal⋅mol^−1; Δ(ΔH 20 °C) [6]: 2.0 ± 0.6 kcal⋅mol^−1; Δ(ΔG 20 °C) [7]: 0.3 ± 0.2 kcal⋅mol^−1 and 0.33±0.12 kcal⋅mol^−1; Δ(ΔH 20 °C) [7]: 1.4 ± 0.6 kcal⋅mol^−1; Δ(‐TΔS) 20 °C [7]: -1.0 kcal⋅mol^−1 and −1.0±0.8 kcal⋅mol^−1; Δ(ΔG 37 °C) [8]: −0.25±0.08 kcal⋅mol^−1; Δ(ΔH 37 °C) [8]: 0.7 ± 0.7 kcal⋅mol^−1; Δ(‐TΔS) 37 °C [8]: -1.0 ± 0.8 kcal⋅mol^−1; Δ(ΔG 37 °C) [9]: 0.3 ± 0.1 kcal⋅mol^−1 and 0.34±0.08 kcal⋅mol^−1; Δ(ΔH 37 °C) [9]: 1.0 ± 0.7 kcal⋅mol^−1; Δ(‐TΔS) 37 °C [9]: -0.6 ± 0.8 kcal⋅mol^−1; Δ(ΔCp) (peptide 2 minus peptide 1 (pair 2–1)): −0.07±0.05 kcal⋅mol^−1.K^−1; Δ(ΔCp) (peptide 2 minus peptide 3 (pair 2–3)): −0.02±0.05 kcal⋅mol^−1.K^−1
4 | CCCC[C@@H]1NC(=O)[C@H](C(C)C)NC(=O)[C@H](Cc2c[nH]cn2)NC(=O)[C@H]([C@@H](C)CC)NC(=O)[C@H](CC(=O)O)NC(=O)[C@@H](N)CSSC[C@@H]2NC(=O)[C@H](CCC(=O)NCCCC[C@@H](C(=O)N[C@@H](CC(C)C)C(N)=O)NC(=O)[C@H](CCC(=O)O)NC(=O)[C@H](Cc3ccccc3)NC2=O)NC(=O)[C@H](Cc2c[nH]c3ccccc23)NC(=O)[C@H](CCC(=O)O)NC(=O)[C@H](Cc2c[nH]c3ccccc23)NC1=O [3 c] | −.89 [−10.01; −9.78] kcal⋅mol^−1 | 6.1 [5.6; 6.5] kcal⋅mol^−1 | −9.61 [−9.71; −9.52] kcal⋅mol^−1 | 12.8 [12.3; 13.2] kcal⋅mol^−1 | −22.4 [−22.8; −22.0] kcal⋅mol^−1 | −0.38 [−0.41; −0.35] kcal⋅mol^−1.K^−1 | 1.2±0.7 | −1.6±0.8 | 0.6±0.6 | −1.1±0.7 | −16.0 [−16.3; −15.6] kcal⋅mol^−1 | −0.04±0.05 | –
5 | CCCC[C@@H]1NC(=O)[C@H](C(C)C)NC(=O)[C@H](Cc2c[nH]cn2)NC(=O)[C@H]([C@@H](C)CC)NC(=O)[C@H](CC(=O)O)NC(=O)[C@@H](N)CSSC[C@@H](C(=O)N[C@@H](Cc2ccccc2)C(=O)N[C@@H](CCC(=O)O)C(=O)N[C@@H](CCC(=O)O)C(=O)N[C@@H](CC(C)C)C(N)=O)NC(=O)[C@H](CCCCN)NC(=O)[C@H](Cc2c[nH]c3ccccc23)NC(=O)[C@H](CCC(=O)O)NC(=O)[C@H](Cc2c[nH]c3ccccc23)NC1=O [compound 4] (H-CDIHV[Nle]WEWKCFEEL-NH2; disulfide 1-11) | −9.22 [−9.27; −9.16] kcal⋅mol^−1 | 8.2 [7.8; 8.5] kcal⋅mol^−1 | −8.71 [−8.80; −8.63] kcal⋅mol^−1 | 14.3 [13.5; 15.1] kcal⋅mol^−1 | −23.0 [−23.7; −22.3] kcal⋅mol^−1 | −0.33 [−0.38; −0.28] kcal⋅mol^−1.K^−1 | – | – | – | – | −17.4 [−17.7; −17.1] kcal⋅mol^−1 | – | –
